Read-outs that look alike come from different tables or passages of the source.
Target: T1, glucocorticoid receptor (GR) (Homo sapiens, UniProt P04150)
T1 sequence (P04150 1-777): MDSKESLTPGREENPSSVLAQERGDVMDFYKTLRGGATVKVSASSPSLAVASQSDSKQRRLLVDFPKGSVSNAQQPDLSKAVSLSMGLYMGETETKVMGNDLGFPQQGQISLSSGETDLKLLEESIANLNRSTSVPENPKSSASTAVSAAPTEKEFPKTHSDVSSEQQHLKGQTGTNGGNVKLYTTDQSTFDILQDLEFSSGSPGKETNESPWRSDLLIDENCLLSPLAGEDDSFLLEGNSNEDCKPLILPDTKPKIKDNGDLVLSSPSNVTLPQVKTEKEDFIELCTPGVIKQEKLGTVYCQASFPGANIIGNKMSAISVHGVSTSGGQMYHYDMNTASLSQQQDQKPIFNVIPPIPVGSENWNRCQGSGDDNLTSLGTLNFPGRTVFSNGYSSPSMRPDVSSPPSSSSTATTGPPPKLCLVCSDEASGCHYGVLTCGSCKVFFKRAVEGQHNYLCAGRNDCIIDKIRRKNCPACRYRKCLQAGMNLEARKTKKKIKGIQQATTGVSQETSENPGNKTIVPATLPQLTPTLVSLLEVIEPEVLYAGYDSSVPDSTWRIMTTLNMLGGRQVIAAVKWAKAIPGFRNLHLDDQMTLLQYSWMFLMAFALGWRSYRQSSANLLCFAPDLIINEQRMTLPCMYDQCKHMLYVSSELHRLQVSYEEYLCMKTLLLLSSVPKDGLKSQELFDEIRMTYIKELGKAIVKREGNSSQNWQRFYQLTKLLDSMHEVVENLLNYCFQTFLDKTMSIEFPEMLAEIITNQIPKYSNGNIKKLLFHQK
Assay: GR-EFC nuclear translocation assay
Type: cell-based
Details: for qHTS Hill Slope: Hill slope of the qHTS curve fit; for log qEC50: log10 of qEC50 in M, printed as negative values; for qHTS Max Activity: maximal activity of the qHTS curve, inactive threshold […] (3σ)

[1] = read-out: qEC50, qHTS curve fit, class 4 values are fit defaults
[2] = class 4 values are fit defaults

EC50 (read-out: qEC50) [µM] | EC50 [1] [µM] | qHTS Hill Slope | qHTS Max Activity | SMILES | qHTS Curve Class | also measured
> 9 |  |  |  | C=C(C)[C@H]1CC[C@]2(CO)CC[C@]3(C)[C@@H](CC[C@H]4[C@@]5(C)CC[C@@H](O)C(C)(C)[C@@H]5CC[C@@]43C)[C@H]12 [NCGC00016450-01] | 4 (inactive, where activity was below 28.6% (3σ for the present assay)) | 
> 9 |  |  |  | C#C[C@]1(O)CC[C@H]2[C@@H]3CCC4=CCCC[C@@H]4[C@H]3CC[C@@]21C [NCGC00016233-01] | 4 (inactive, where activity was below 28.6% (3σ for the present assay)) | 
 | > 9 |  |  | C[C@@]12CC[C@@H]3c4ccc(OS(=O)(=O)O)cc4CC[C@H]3[C@H]1CCC2=O [NCGC00016682-01] |  | 
 | > 9 |  |  | C[C@]12CC[C@H]3[C@@H](CCC4=CC(=O)CC[C@@]43C)[C@@H]1CC[C@@H]2C(=O)CO [NCGC00016292-01] |  | 
> 9 |  |  |  | CC(C)CCC(=O)O.C[C@@]12CCC(=O)C[C@@H]1CC(=O)[C@H]1[C@H]3CCC[C@]3(C)C(=O)C[C@@H]12 [NCGC00017016-01] | 4 (inactive, where activity was below 28.6% (3σ for the present assay)) | 
 |  |  |  | CC(=O)C1(O)CCC2C3CCC4=CC(=O)CCC4(C)C3CCC21C (stereo not drawn) [17α-hydroxyprogesterone, reference compound] |  | EC50: 2.87 µM
 | 0.0165 | 1.35 | 37.8 | C[C@@]12C[C@@H](O)[C@H]3[C@@H](CCC4=CC(=O)CC[C@]43C)[C@H]1CC[C@H]2C(=O)CO [NCGC00016214-01] |  | log qEC50 [2]: −7.782
> 9 |  |  |  | CC(=O)O[C@@H]1C[C@]2(C)[C@H](C[C@@H](O)[C@H]3[C@@]4(C)CC[C@@H](O)[C@@H](C)[C@@H]4CC[C@@]32C)/C1=C(\CCC=C(C)C)C(=O)[O-].[Na+] [NCGC00016148-01] | 4 (inactive, where activity was below 28.6% (3σ for the present assay)) | 
 | 0.00944 | 0.96 | 30.2 | CCOC(=O)O[C@]1(C(=O)COC(=O)CC)CC[C@H]2[C@@H]3CCC4=CC(=O)C=C[C@]4(C)[C@H]3[C@@H](O)C[C@@]21C [NCGC00016926-01] |  | log qEC50 [2]: −8.025
 | > 9 |  |  | COc1ccc2c(c1)CC[C@H]1[C@H]2CC[C@]2(C)[C@H](NCCCCCCN3C(=O)C=CC3=O)CC[C@@H]12 [NCGC00016078-01] |  | 
> 9 |  |  |  | CC(=O)O[C@H]1CC[C@@]2(C)[C@@H](CC[C@@]3(C)[C@H]2C(=O)C=C2[C@H]4C[C@](C)(C(=O)OCCN5CCCCC5)CC[C@]4(C)CC[C@@]23C)C1(C)C [NCGC00017165-01] | 4 (inactive, where activity was below 28.6% (3σ for the present assay)) | 
> 9 |  |  |  | C#C[C@@]1(O)CC[C@@H]2[C@@H]3CCC4=CC(=O)CC[C@@H]4[C@H]3CC[C@]21CC [NCGC00016540-01] | 4 (inactive, where activity was below 28.6% (3σ for the present assay)) | 
> 9 |  |  |  | CC1(C)CC[C@]2(C(=O)O)CC[C@]3(C)C(=CC[C@@H]4[C@@]5(C)CC[C@H](O)C(C)(C)[C@@H]5CC[C@@]43C)[C@@H]2C1 [NCGC00017222-01] | 4 (inactive, where activity was below 28.6% (3σ for the present assay)) | 
 | 0.0775 | 0.44 | 80.7 | CC(=O)OCC(=O)[C@@]1(OC(C)=O)[C@H](C)C[C@H]2[C@@H]3C[C@H](F)C4=CC(=O)C=C[C@@]4(C)[C@]3(F)[C@H](O)C[C@@]21C [NCGC00016822-01] |  | log qEC50 [2]: −7.111
 | > 9 |  |  | CC(=O)O[C@@H]1CC[C@]2(C)[C@H]3CC[C@]4(C)[C@H](C[C@H]5CCCC[C@@]54C(C)=O)[C@@H]3CC(=O)[C@@]2(O)C1 [NCGC00017282-01] |  | 
 |  | 0.75 | 74.0 | CC(=O)OCC(=O)[C@@]1(O)CC[C@@H]2[C@H]3CCC4=CC(=O)CC[C@]4(C)[C@]3(F)[C@@H](O)C[C@@]21C [NCGC00016476-01] |  | 
> 9 |  |  |  | C#C[C@]1(O)CC[C@@H]2[C@H]3CCC4=Cc5oncc5C[C@]4(C)[C@@H]3CC[C@@]21C [NCGC00016726-01] | 4 (inactive, where activity was below 28.6% (3σ for the present assay)) | 
 |  | 0.35 | 100.0 | CC(=O)[C@@]1(O)CC[C@@H]2[C@@H]3CCC4=CC(=O)CC[C@@]4(C)[C@H]3CC[C@]21C [NCGC00015510-01] |  | 
> 9 |  |  |  | C[C@@]12C=CC(=O)C=C1CC[C@@H]1C2=CC[C@]2(C)[C@@H]1CC[C@H]2C(=O)CN1CCN(c2cc(N3CCCC3)nc(N3CCCC3)n2)CC1 [NCGC00016076-01] | 4 (inactive, where activity was below 28.6% (3σ for the present assay)) | 
> 9 |  |  |  | C[C@]12CC[C@@H]3C(=CCc4cc(O)ccc43)[C@@H]1CCC2=O [NCGC00016451-01] | 4 (inactive, where activity was below 28.6% (3σ for the present assay)) | 
 |  | 0.57 | 15.6 | CC(=O)CC(=O)[C@@]1(O)CC[C@@H]2[C@@H]3C=C(C)C4=CC(=O)CC[C@@H]4[C@H]3CC[C@]21C [NCGC00016884-01] |  | 
 | > 9 |  |  | C[C@@]12CC[C@@H]3c4ccc(O)cc4C[C@H](CCCCCCCCC[S+]([O-])CCCC(F)(F)C(F)(F)F)[C@H]3[C@@H]1CC[C@@H]2O (stereo partly drawn) [NCGC00024964-01] |  | 
 |  | 0.70 | 60.7 | C[C@@]12CCC(=O)C=C1CC[C@@H]1[C@@H]2[C@H](O)C[C@]2(C)[C@@H]1CC[C@]2(O)C(=O)CO [NCGC00016215-01] |  | 
 | 4.16 | 0.13 | 100.0 | CC(=O)[C@H]1CC[C@H]2[C@@H]3C[C@H](C)C4=CC(=O)CC[C@]4(C)[C@H]3[C@@H](O)C[C@]12C [NCGC00016616-01] |  | log qEC50 [2]: −5.381
> 9 |  |  |  | C[C@H]1[C@H](C)CC[C@@]2(C(=O)O)CC[C@]3(C)C(=CC[C@@H]4[C@@]5(C)CC[C@H](O)C(C)(C)[C@@H]5CC[C@@]43C)[C@@H]12 [NCGC00017223-01] | 4 (inactive, where activity was below 28.6% (3σ for the present assay)) | 
 | 0.434 | 0.59 | 41.2 | C[C@@]12CCC(=O)C=C1CC[C@H]1[C@H]3CC[C@](O)(C(=O)CO)[C@]3(C)CC[C@@H]12 [NCGC00015886-01] |  | log qEC50 [2]: −6.363
 |  | 0.98 | 63.5 | C[C@H]1C[C@@H]2[C@H]([C@@H](O)C[C@@]3(C)[C@H]2CC[C@]3(O)C(=O)CO)[C@@]2(C)C=CC(=O)C=C12 [NCGC00016330-01] |  | 
 | 0.00485 | 0.57 | 97.1 | CC1(C)O[C@@H]2C[C@H]3[C@@H]4C[C@H](F)C5=CC(=O)C=C[C@]5(C)[C@H]4[C@@H](O)C[C@]3(C)[C@]2(C(=O)CO)O1 [NCGC00016983-01] |  | log qEC50 [2]: −8.315

SMILES | EC50 (read-out: qEC50) [µM] | EC50 [1] [µM] | qHTS Hill Slope | qHTS Max Activity | qHTS Curve Class | also measured
CCC(=O)O[C@H]1CC[C@H]2[C@@H]3CCC4=CC(=O)CC[C@]4(C)[C@H]3CC[C@]12C [NCGC00016254-01] |  | > 9 |  |  |  | 
C[C@@]12CC[C@H](O)C[C@@H]1CC[C@H]1[C@H]2CC[C@@]2(C)[C@@H](C3=CC(=O)OC3)CC[C@]12O [NCGC00016406-01] |  | > 9 |  |  |  | 
C#C[C@@]1(O)CC[C@@H]2[C@@H]3CCC4=CC(=O)CC[C@@]4(C)[C@H]3CC[C@]21C [NCGC00016444-01] |  |  | 0.97 | 15.2 |  | 
C[C@@]12CC[C@H](O)C[C@@H]1CC[C@H]1[C@@H]2C[C@@H](O)[C@]2(C)[C@@H](C3=CC(=O)OC3)CC[C@]12O [NCGC00016591-01] |  | > 9 |  |  |  | 
C[C@@]12CC[C@H]3[C@@H](CC[C@@H]4C[C@H](O)CC[C@]43C)[C@H]1CC[C@H]2O [NCGC00015090-01] |  | > 9 |  |  |  | 
C[C@]12CC[C@H](O)CC1=CC[C@@H]1[C@H]2CC[C@]2(C)C(=O)CC[C@H]12 [NCGC00015341-01] |  | > 9 |  |  |  | 
CC(C)(O)/C=C\C(=O)[C@](C)(O)[C@H]1[C@H](O)C[C@]2(C)[C@@H]3CC=C4[C@@H](C=C(O)C(=O)C4(C)C)[C@]3(C)C(=O)C[C@@]12C [NCGC00014911-01] | > 9 |  |  |  | 4 (inactive, where activity was below 28.6% (3σ for the present assay)) | 
C[C@]12CC[C@H](O)C[C@@H]1CC[C@H]1[C@H]2CC[C@]2(C)[C@H](C(=O)CO)CC[C@@H]12 [NCGC00015805-01] |  | > 9 |  |  |  | 
C[C@@H]1O[C@@H](O[C@@H]2C=C3CC[C@@H]4[C@H](CC[C@]5(C)[C@@H](c6ccc(=O)oc6)CC[C@]45O)[C@@]3(C)CC2)[C@H](O)[C@H](O)[C@H]1O [NCGC00016447-01] | > 9 |  |  |  | 4 (inactive, where activity was below 28.6% (3σ for the present assay)) | 
CC(=O)O[C@H]1C[C@H]2CC[C@@H]3[C@@H](CC[C@]4(C)[C@H](OC(C)=O)[C@H]([N+]5(C)CCCCC5)C[C@@H]34)[C@]2(C)C[C@H]1[N+]1(C)CCCCC1 [NCGC00016716-01] |  | > 9 |  |  |  | 

From publication PMC2654417 (Combinatorial chemistry & high throughput screening, 2008)
